In brackets after ≈: the same amount, converted by molar mass.
What was measured:
Test in all cases: in vitro antibacterial activity, broth microdilution method (CLSI M31-A2), MIC
Type in all cases: cell-based
P. multocida = tested on: P. multocida
Experimental: (§1) The compound obtained in the present invention was measured for its in vitro antibacterial activity by a broth microdilution method in accordance with a CLSI method (formerly NCCLS method, […]-A2) (Performance Standards for Antimicrobial Disk and Dilution Susceptibility Tests for Bacteria Isolated from Animals; Approved Standard-Second Edition NCCLS […]-A2 Vol. 22 No. 6 2002). A medium composition used in the measurement is shown below. […] The resultant test drug solution was further subjected to two-step dilution with the liquid medium shown below to prepare a test drug solution at each concentration level. The thus prepared test drug solution at each concentration level was dispensed into a 96-well microplate at 100 μL/well, and a test bacterial strain was inoculated at about 5×10^4 CFU/well. After having been cultured in the presence of 5% CO2 gas at 37° C. for 20 to 24 hours, the test bacterial strain was visually observed for the presence or absence of its growth. A minimum drug concentration completely inhibiting the growth of the test bacterial strain was defined as a minimum inhibitory concentration (hereinafter referred to as MIC). […] Saponin was dissolved with purified water. The solution was sterilized and then added to defibrinated horse blood.

H. somni = tested on: H. somni
Experimental: as §1

H. parasuis = tested on: H. parasuis
Experimental: as §1

M. haemolytica = tested on: M. haemolytica
Experimental: as §1

A. pleuropneumoniae = tested on: A. pleuropneumoniae
Experimental: as §1

[1] = P. multocida (bovine) strain 11272R
[2] = P. multocida (bovine) strain 11325-1R
[3] = P. multocida (bovine) strain 11787-24R1
[4] = P. multocida (bovine) strain ATCC43019
[5] = P. multocida (swine) strain 11587-3R
[6] = P. multocida (swine) strain 11745-15R
[7] = P. multocida (swine) strain ATCC43137
[8] = A. pleuropneumoniae strain 10895-2R
[9] = A. pleuropneumoniae strain 11684-7R
[10] = A. pleuropneumoniae strain 11796-1R
[11] = A. pleuropneumoniae strain 11804-2R
[12] = A. pleuropneumoniae strain ATCC27089

Which results are given for `CCC(=O)OC1CC(=O)OC(C)CC(O)C(N(C)CCCc2ccnc3ccccc23)C=CC(OC(C)=O)C(C)CC(CC=O)C(OC2OC(C)C(O)C(N(C)C)C2O)C1OC` (stereo not drawn) [(IIIa)]?
MIC (P. multocida; [1]): 4 µg/mL (≈ 4.59 µM); MIC (P. multocida; [2]): 2 µg/mL (≈ 2.29 µM); MIC (P. multocida; [3]): 4 µg/mL (≈ 4.59 µM); MIC (P. multocida; [4]): 4 µg/mL (≈ 4.59 µM); MIC (P. multocida; [5]): 4 µg/mL (≈ 4.59 µM); MIC (P. multocida; [6]): 4 µg/mL (≈ 4.59 µM); MIC (P. multocida; [7]): 2 µg/mL (≈ 2.29 µM); MIC (H. somni; H. somni strain 11321R): 0.5 µg/mL (≈ 0.573 µM); MIC (H. somni; H. somni strain 11423-3R): 1 µg/mL (≈ 1.15 µM); MIC (H. parasuis; H. parasuis strain 11510-1-2R): 0.25 µg/mL (≈ 0.287 µM); MIC (H. parasuis; H. parasuis strain 11640-1R): 2 µg/mL (≈ 2.29 µM); MIC (M. haemolytica; M. haemolytica strain 11443R): 2 µg/mL (≈ 2.29 µM); MIC (M. haemolytica; M. haemolytica strain 11467-2R): 4 µg/mL (≈ 4.59 µM); MIC (A. pleuropneumoniae; [8]): 4 µg/mL (≈ 4.59 µM); MIC (A. pleuropneumoniae; [9]): 16 µg/mL (≈ 18.3 µM); MIC (A. pleuropneumoniae; [10]): 4 µg/mL (≈ 4.59 µM); MIC (A. pleuropneumoniae; [11]): 4 µg/mL (≈ 4.59 µM); MIC (A. pleuropneumoniae; [12]): 4 µg/mL (≈ 4.59 µM)

Which MIC (P. multocida; [1]) does the source give for `CO[C@@H]1C(OC2O[C@@H](C)C(O)C(N(C)C)C2O)[C@@H](CC=O)C[C@@H](C)[C@@H](OC(C)=O)/C=C/[C@@H](N(C)CCCc2ccnc3ccccc23)[C@@H](O)C[C@@H](C)OC(=O)C[C@H]1OC(C)=O` (stereo partly drawn) [(IIIb)] here?
Its MIC is 4 µg/mL (≈ 4.66 µM).

And the MIC (P. multocida; [2])?
The MIC was 2 µg/mL (≈ 2.33 µM).

What about the MIC (P. multocida; [3]) of the same compound?
Its MIC is 4 µg/mL (≈ 4.66 µM).

And the MIC (P. multocida; [4])?
The MIC was 4 µg/mL (≈ 4.66 µM).

What about the MIC (P. multocida; [5]) of the same compound?
The MIC was 4 µg/mL (≈ 4.66 µM).

What about the MIC (P. multocida; [6]) of the same compound?
The MIC was 4 µg/mL (≈ 4.66 µM).

What about the MIC (P. multocida; [7]) of the same compound?
Its MIC is 4 µg/mL (≈ 4.66 µM).

And the MIC (H. somni; H. somni strain 11321R)?
Its MIC is 0.5 µg/mL (≈ 0.583 µM).

And the MIC (H. somni; H. somni strain 11423-3R)?
The MIC was 1 µg/mL (≈ 1.17 µM).

And the MIC (H. parasuis; H. parasuis strain 11510-1-2R)?
The MIC was 0.5 µg/mL (≈ 0.583 µM).

What about the MIC (H. parasuis; H. parasuis strain 11640-1R) of the same compound?
The MIC was 4 µg/mL (≈ 4.66 µM).

And the MIC (M. haemolytica; M. haemolytica strain 11443R)?
The MIC was 4 µg/mL (≈ 4.66 µM).

What about the MIC (M. haemolytica; M. haemolytica strain 11467-2R) of the same compound?
Its MIC is 4 µg/mL (≈ 4.66 µM).

What about the MIC (A. pleuropneumoniae; [8]) of the same compound?
Its MIC is 4 µg/mL (≈ 4.66 µM).

What about the MIC (A. pleuropneumoniae; [9]) of the same compound?
Its MIC is 32 µg/mL (≈ 37.3 µM).

And the MIC (A. pleuropneumoniae; [10])?
The MIC was 4 µg/mL (≈ 4.66 µM).

What about the MIC (A. pleuropneumoniae; [11]) of the same compound?
The MIC was 8 µg/mL (≈ 9.32 µM).

What about the MIC (A. pleuropneumoniae; [12]) of the same compound?
The MIC was 4 µg/mL (≈ 4.66 µM).

Reference: US20140039171A1, “NOVEL MACROLIDE INTERMEDIATE AND NOVEL PRODUCTION PROCESS” (MEIJI SEIKA PHARMA CO., LTD., priority 2011, published 2014)
